Results published in article PMC10937419, “Exploring pyrrolidinyl-spirooxindole natural products as promising platforms for the synthesis of novel spirooxindoles as EGFR/CDK2 inhibitors for halting breast cancer cells” (Frontiers in Chemistry, 2024).

Columns and labels:
MCF-7 cells [1] = assay: MTT cytotoxicity assay, MCF-7 breast cancer cells; assay type: cell-based; settings: Homo sapiens, MCF7; MTT assay; mean ± SD of three independent trials; read-out: IC50 ± SD, MCF-7
Description: (§1) All cells were incubated at 37 °C in 5% carbon dioxide atmosphere (NuAire). Cells were plated at a density of 5x10^4 cells in triplicates in a plate of 96 wells. On the second day, cells were treated with the compounds with concentrations of (0.01, 0.1, 1, 10, and 100 µM). Cell viability was assessed using the MTT assay [6].

EGFR kinase = molecular target: T1, EGFR kinase (Homo sapiens, UniProt P00533); assay: EGFR kinase inhibition assay; assay type: biochemical; settings: for % remaining EGFR kinase activity (relative to control): signal relative to control; for % remaining EGFR kinase activity (relative to control) / inhibition at 0.01 µM / inhibition at 0.1 µM / inhibition at 1 µM / inhibition at 2.5 µM / inhibition at 5 µM / inhibition at 10 µM: ΔT=30 min; for IC50: average of three independent replicates; for % Of EGFR inhibition: concentration not given in Table 2, matches 10 µM in the 4th table
T1 construct: purchased BPS Bioscience Corporation 40321
Description: (§2) Inhibitory activities of 5g, 5l, and 5n were tested against EGFR and CDK-2.
(§3) Plus, Promega, USA) inhibition assay.

WISH cells = assay: MTT cytotoxicity (safety) assay, normal WISH cells; assay type: cell-based; settings: mean ± SD of three independent trials
Description: The cytotoxicity of the synthesized compounds was tested using the MTT assay on breast cancer cells (MCF-7 and MDA-MB-231).
The methods for the Cytotoxic activity ([Mosmann, 1983]; [Nafie et al., 2020a]); EGFR/CDK-2 enzyme inhibition ([Nafie et al., 2022a]); Flow cytometry using Annexin V/PI staining; Gene expression analysis using RT-PCR ([Nafie et al., 2022b]); are amended in the Supplementary Material S1.
as §1, with “Both breast cancer; MCF-7 and MDA-MB-231 and normal (WISH) cells were purchased from the National Research Institute, Egypt, and maintained in RPMI-1640 medium L-Glutamine (Lonza Verviers SPRL, Belgium, cat#12-604F). All” for “All”

MDA-MB-231 cells = assay: MTT cytotoxicity assay, MDA-MB-231 breast cancer cells; assay type: cell-based; settings: Homo sapiens, MDA-MB-231, MTT assay; mean ± SD of three independent trials; read-out: IC50 ± SD, MDA-MB-231
Description: as §1

MCF-7 cells [2] = assay: Cell cycle analysis by flow cytometry; assay type: cell-based; settings: MCF-7, at the IC50 value, 48 h
MCF-7 cells [3] = assay: Annexin V/PI staining flow cytometry (apoptosis/necrosis); assay type: cell-based; settings: MCF-7, at the IC50 value, 48 h
Description: The apoptotic activity of compounds 5g was determined by flow cytometric analysis of Annexin V/PI staining of untreated and treated MCF-7 cells. […] Additionally, they induced necrotic cell death by 5.43% compared to 2.12% in the untreated control.
FIGURE 4 (A) Bar representation of the percentage of apoptosis (early and late apoptotic cell population) using Annexin V/Propidium Iodide staining.
MCF-7 cells were seeded into 6-well culture plates (3-5× 10^5 cells/well) and incubated overnight. […] Next, media supernatants and cells were collected and rinsed with ice-cold PBS. Then cells were suspended the cells in 100 µL of annexin binding buffer solution "25 mM CaCl2, 1.4 M NaCl, and 0.1 M Hepes/NaOH, pH 7.4” and incubation with “Annexin V-FITC solution (1:100) and propidium iodide (PI)” at a concentration equals 10 µg/mL in the dark for 30 min. Stained cells were then acquired by BD FACSCalibur™ Flow Cytometer.

MCF-7 cells [4] = assay: RT-PCR gene expression of apoptosis-related genes; assay type: cell-based; settings: MCF-7, at the IC50 value, 48 h
Description: Both the untreated and treated MCF-7 cells were subjected to RT-PCR to confirm apoptotic cell death (Figure 5). […] These findings are in line with the possibility of triggering cell death by blocking enzymes. Activation of the intrinsic apoptotic pathway leads to mitochondrial potential loss and cytochrome c release. When the ratio of proteins that promote cell death to those that prevent it rises, a cascade reaction involving caspases 3 and 9 is set in motion, leading to cell death by caspase-dependent apoptosis.
“Values are expressed as Mean ± SD of three independent replicates”. “Data were normalized using β-actin as house-keeping gene. The dashed line represents the gene expression level of untreated control. Fold change was calculated using 2^^- ΔΔCT”.
Gene expression of Bcl-2, the anti-apoptotic gene, and the pro-apoptotic genes P53, Bax, and Caspapses-3,8,9 were examined to delve deeper into the apoptotic pathway. […] After treatment, RT-PCR reaction was carried out following routine work. Then, the Ct values were collected to calculate the relative genes’ expression in all samples by normalization to the β-actin housekeeping gene.

CDK-2 kinase = molecular target: T2, CDK-2 kinase (Homo sapiens, UniProt P24941); assay: CDK-2 kinase inhibition assay (Kinase-Glo Plus); assay type: biochemical; settings: for CDK-2 kinase activity remaining (% of control): signal relative to control; for CDK-2 kinase activity remaining (% of control) / inhibition at 0.01 µM / inhibition at 0.1 µM / inhibition at 1 µM / inhibition at 2.5 µM / inhibition at 5 µM / inhibition at 10 µM: ΔT=30 min; for inhibition at 0.01 µM / inhibition at 0.1 µM / inhibition at 1 µM / inhibition at 2.5 µM / inhibition at 5 µM / inhibition at 10 µM: read-out: % of inhibition, CDK2; for IC50: average of three independent replicates
T2 construct: purchased not clearly printed (Promega, USA is printed after 'Kinase-Glo Plus'; #79599 is a BPS Bioscience number to my knowledge) 79599
Description: as §2, §3

CDK-2 = test system: CDK-2; design: method as in Al-Jassas, et al., 2023; settings: ref Al-Jassas, et al., 2023; read-out: CDK-2 inhibition; cited from earlier work
EGFR = test system: EGFR; design: method as in Al-Jassas, et al., 2023; settings: ref Al-Jassas, et al., 2023; read-out: IC50 for EGFR inhibition; cited from earlier work
MCF-7 = test system: MCF-7; design: method as in Al-Jassas, et al., 2023; settings: ref Al-Jassas, et al., 2023; cited from earlier work
HepG2 = test system: HepG2; design: method as in Al-Jassas, et al., 2023; settings: ref Al-Jassas, et al., 2023; cited from earlier work
A549 cells = test system: A549 cells; design: method as in Barakat, et al., 2023; settings: ref Barakat, et al., 2023, cited from earlier work

T1 sequence (P00533 25-1210): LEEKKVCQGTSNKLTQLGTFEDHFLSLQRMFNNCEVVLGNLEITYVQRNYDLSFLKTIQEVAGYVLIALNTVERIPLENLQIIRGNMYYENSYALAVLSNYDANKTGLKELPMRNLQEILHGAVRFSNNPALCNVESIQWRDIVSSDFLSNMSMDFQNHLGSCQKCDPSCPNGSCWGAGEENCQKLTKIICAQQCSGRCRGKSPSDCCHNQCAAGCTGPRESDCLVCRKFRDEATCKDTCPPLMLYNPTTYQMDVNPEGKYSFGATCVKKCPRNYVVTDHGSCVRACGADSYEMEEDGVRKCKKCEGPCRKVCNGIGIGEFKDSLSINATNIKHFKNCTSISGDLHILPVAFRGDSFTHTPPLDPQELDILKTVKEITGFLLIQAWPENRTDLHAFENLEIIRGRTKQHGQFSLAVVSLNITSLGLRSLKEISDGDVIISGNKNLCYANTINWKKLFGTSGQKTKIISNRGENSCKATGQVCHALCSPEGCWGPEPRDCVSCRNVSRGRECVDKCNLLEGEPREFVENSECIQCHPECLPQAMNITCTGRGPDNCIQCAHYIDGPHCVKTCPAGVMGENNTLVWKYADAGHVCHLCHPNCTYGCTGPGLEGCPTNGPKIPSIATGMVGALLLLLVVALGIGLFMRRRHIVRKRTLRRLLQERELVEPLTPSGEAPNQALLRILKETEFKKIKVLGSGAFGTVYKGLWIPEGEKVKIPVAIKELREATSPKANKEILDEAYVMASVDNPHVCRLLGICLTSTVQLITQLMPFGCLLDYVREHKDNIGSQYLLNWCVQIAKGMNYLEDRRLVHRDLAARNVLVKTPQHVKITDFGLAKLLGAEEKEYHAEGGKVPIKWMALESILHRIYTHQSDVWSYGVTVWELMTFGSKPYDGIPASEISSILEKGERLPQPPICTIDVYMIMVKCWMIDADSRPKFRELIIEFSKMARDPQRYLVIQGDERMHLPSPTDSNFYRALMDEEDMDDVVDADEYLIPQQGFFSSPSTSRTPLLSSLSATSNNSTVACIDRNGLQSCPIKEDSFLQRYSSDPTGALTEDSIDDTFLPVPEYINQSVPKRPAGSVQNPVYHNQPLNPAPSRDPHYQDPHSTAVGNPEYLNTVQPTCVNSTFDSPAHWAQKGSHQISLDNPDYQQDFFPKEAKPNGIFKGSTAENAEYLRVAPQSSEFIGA

## O=C(O)CN1C(=O)S[C@@]2(C1=O)[C@@H](c1ccc(Cl)cc1)[C@H]1CSCN1[C@@]21C(=O)Nc2ccc(Br)cc21 [Compound 5g, 2-((3S,6′S,7′S,7a′S)-5-bromo-7'-(4-chlorophenyl)-2,2″,4″-trioxo-7′,7a′-dihydro-1′H,3′H-dispiro [indoline-3,5′-pyrrolo [1,2-c]thiazole-6′,5″-thiazolidin]-3″-yl)acetic acid]
MCF-7 cells [1]
  IC50: 2.8 ± 0.4 µM
EGFR kinase; 0.01 µM
  % remaining EGFR kinase activity (relative to control): 90.58%
  inhibition at 0.01 µM: 9.42%
EGFR kinase; 0.1 µM
  % remaining EGFR kinase activity (relative to control): 69.72%
  inhibition at 0.1 µM: 30.3%
EGFR kinase; 1 µM
  % remaining EGFR kinase activity (relative to control): 40.27%
  inhibition at 1 µM: 59.7%
EGFR kinase; 2.5 µM
  % remaining EGFR kinase activity (relative to control): 33.39%
  inhibition at 2.5 µM: 66.6%
EGFR kinase; 5 µM
  % remaining EGFR kinase activity (relative to control): 31.63%
  inhibition at 5 µM: 68.4%
EGFR kinase; 10 µM
  % remaining EGFR kinase activity (relative to control): 7.867%
  inhibition at 10 µM: 92.6%
EGFR kinase
  IC50: 0.026 ± 0.006 µM
  % Of EGFR inhibition: 92.6 ± 1.9%
WISH cells
  IC50: 39.3 ± 1.8 µM
MDA-MB-231 cells
  IC50: 23.5 ± 0.9 µM
MCF-7 cells [2]; control 31%
  cell population in the G0-G1-phase: 39.8%
MCF-7 cells [2]; control 32.1%
  cell population in the S-phase: 45.2%
MCF-7 cells [2]; versus untreated control
  cells population at G2/M phase: decreased
MCF-7 cells [3]
  early apoptosis: 21.87%
  late apoptosis: 10.15%
MCF-7 cells [3]; untreated control 2.12%
  necrotic cell death: 5.43%
MCF-7 cells [4]; anti-apoptotic gene, downregulated
  Bcl-2 gene expression fold change: 0.39 fold
MCF-7 cells [4]; normalized to β-actin, 2^-ΔΔCT
  Bax gene expression fold change: 6.26 fold
  P53 gene expression fold change: 4.1 fold
  caspase 3 gene expression fold change: 9.2 fold
  caspase 8 gene expression fold change: 1.7 fold
  caspase 9 gene expression fold change: 6.13 fold
CDK-2 kinase; 0.01 µM
  CDK-2 kinase activity remaining (% of control): 90.11%
  inhibition at 0.01 µM: 9.89%
CDK-2 kinase; 0.1 µM
  CDK-2 kinase activity remaining (% of control): 78.5%
  inhibition at 0.1 µM: 21.5%
CDK-2 kinase; 1 µM
  CDK-2 kinase activity remaining (% of control): 64.55%
  inhibition at 1 µM: 35.5%
CDK-2 kinase; 2.5 µM
  CDK-2 kinase activity remaining (% of control): 60.7%
  inhibition at 2.5 µM: 39.3%
CDK-2 kinase; 5 µM
  CDK-2 kinase activity remaining (% of control): 33.99%
  inhibition at 5 µM: 66%
CDK-2 kinase; 10 µM
  CDK-2 kinase activity remaining (% of control): 27.2254%
  inhibition at 10 µM: 91.9%
CDK-2 kinase
  IC50: 0.301 µM

## COC(=O)[C@H](C)NC(=O)CN1C(=O)S[C@@]2(C1=O)[C@@H](c1ccc(Cl)cc1)[C@H]1CSCN1[C@@]21C(=O)Nc2cc(Cl)ccc21 [Compound 5n, Methyl (2-((3S,6′S,7′S,7a′S)-6-chloro-7'-(4-chlorophenyl)-2,2″,4″-trioxo-7′,7a′-dihydro-1′H,3′H-dispiro [indoline-3,5′-pyrrolo [1,2-c]thiazole-6′,5″-thiazolidin]-3″-yl)acetyl)alaninate]
MCF-7 cells [1]
  IC50: 3.9 ± 0.3 µM
EGFR kinase; 0.01 µM
  % remaining EGFR kinase activity (relative to control): 71.48%
  inhibition at 0.01 µM: 28.5%
EGFR kinase; 0.1 µM
  % remaining EGFR kinase activity (relative to control): 59.63%
  inhibition at 0.1 µM: 40.4%
EGFR kinase; 1 µM
  % remaining EGFR kinase activity (relative to control): 36.13%
  inhibition at 1 µM: 63.9%
EGFR kinase; 2.5 µM
  % remaining EGFR kinase activity (relative to control): 37.42%
  inhibition at 2.5 µM: 62.6%
EGFR kinase; 5 µM
  % remaining EGFR kinase activity (relative to control): 30.59%
  inhibition at 5 µM: 69.4%
EGFR kinase; 10 µM
  % remaining EGFR kinase activity (relative to control): 8.54%
  inhibition at 10 µM: 91.2%
EGFR kinase
  IC50: 0.04 ± 0.001 µM
  % Of EGFR inhibition: 91.2 ± 2.1%
WISH cells
  IC50: 47.2 ± 2.1 µM
MDA-MB-231 cells
  IC50: 5.3 ± 0.4 µM
CDK-2 kinase; 0.01 µM
  CDK-2 kinase activity remaining (% of control): 91.05%
  inhibition at 0.01 µM: 8.95%
CDK-2 kinase; 0.1 µM
  CDK-2 kinase activity remaining (% of control): 74.4404%
  inhibition at 0.1 µM: 25.6%
CDK-2 kinase; 1 µM
  CDK-2 kinase activity remaining (% of control): 63.25%
  inhibition at 1 µM: 36.8%
CDK-2 kinase; 2.5 µM
  CDK-2 kinase activity remaining (% of control): 61.79%
  inhibition at 2.5 µM: 38.2%
CDK-2 kinase; 5 µM
  CDK-2 kinase activity remaining (% of control): 47.27%
  inhibition at 5 µM: 52.7%
CDK-2 kinase; 10 µM
  CDK-2 kinase activity remaining (% of control): 42.84%
  inhibition at 10 µM: 88.7%
CDK-2 kinase
  IC50: 0.557 µM
CDK-2 kinase; concentration not given in Table 2, matches 10 µM in the 5th table
  % Of CDK-2 inhibition: 88.7%

## O=C(c1ccc(Br)cc1)[C@H]1[C@H](c2cn(-c3ccccc3)nc2-c2ccccc2)C2CC3CCCCC3N2[C@]12C(=O)Nc1ccc(Cl)cc12 (stereo partly shown) [Compound II]
CDK-2
  IC50: 0.035 µM
EGFR
  IC50: 0.0966 µM
MCF-7
  IC50: 0.189 ± 0.01 µM
HepG2
  IC50: 1.04 ± 0.21 µM

## O=C(c1nc2ccccc2[nH]1)[C@H]1[C@H](c2ccc(Cl)cc2Cl)C2CC3CCCCC3N2[C@@]12c1ccccc1-c1nc3ccccc3nc12 (stereo partly shown) [hit III]
A549 cells; A549 cells versus normal lung fibroblasts Wi-38
  selectivity index (SI): 6.64
A549 cells
  IC50: 0.054 µM
